These results are taken from ChEMBL document CHEMBL5291721, “A preclinical secondary pharmacology resource illuminates target-adverse drug reaction associations of marketed drugs” (Nat Commun, 2023).

Among the targets are Histamine H3 receptor (Homo sapiens, UniProt Q9Y5N1); D(3) dopamine receptor (Homo sapiens, UniProt P35462); D(1A) dopamine receptor (Homo sapiens, UniProt P21728); Mu-type opioid receptor (Homo sapiens, UniProt P35372).
Experiment [1] has as its target T1, Thromboxane A2 receptor (Homo sapiens, UniProt P21731).
T1 sequence (P21731 whole entry): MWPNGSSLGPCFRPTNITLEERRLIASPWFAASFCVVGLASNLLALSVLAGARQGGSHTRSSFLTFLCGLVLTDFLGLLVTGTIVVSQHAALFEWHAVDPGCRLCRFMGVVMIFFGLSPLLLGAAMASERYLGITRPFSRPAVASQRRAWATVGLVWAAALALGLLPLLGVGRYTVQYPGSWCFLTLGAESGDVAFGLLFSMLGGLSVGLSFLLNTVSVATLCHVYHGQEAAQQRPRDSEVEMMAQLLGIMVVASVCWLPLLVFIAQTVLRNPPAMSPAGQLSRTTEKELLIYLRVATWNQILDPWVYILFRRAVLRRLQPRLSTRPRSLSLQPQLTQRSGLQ
In kind it is functional, cell-based.

The target of experiment [2] is 3',5'-cyclic-AMP phosphodiesterase 4A (Homo sapiens, UniProt P27815). It counts as functional.
Experiment [3] deals with T1, Thromboxane A2 receptor. It counts as functional, cell-based. The source holds these as a separate data set.
Experiment [4] deals with cGMP-inhibited 3',5'-cyclic phosphodiesterase 3A (Homo sapiens, UniProt Q14432). In kind it is functional.
The next experiment deals with Acetylcholinesterase (Homo sapiens, UniProt P22303). In kind it is functional.
Experiment [5] has as its target Sodium-dependent dopamine transporter (Homo sapiens, UniProt Q01959).
Experiment [6] concerns the target Voltage-gated inwardly rectifying potassium channel KCNH2 (Homo sapiens, UniProt Q12809). In kind it is functional. As to conditions: read-out: AC50.
The target of experiment [7] is 5-hydroxytryptamine receptor 2B (Homo sapiens, UniProt P41595). It counts as functional, cell-based.
Experiment [8] has as its target Sodium-dependent noradrenaline transporter (Homo sapiens, UniProt P23975).
In another experiment the target is Bile salt export pump (Homo sapiens, UniProt O95342). It counts as functional.
For experiment [9], the target named is T2, Prostaglandin G/H synthase 1 (Homo sapiens, UniProt P23219). In kind it is functional.
Experiment [10] concerns the target T3, 5-hydroxytryptamine receptor 1A (Homo sapiens, UniProt P08908).
T3 sequence (P08908 whole entry): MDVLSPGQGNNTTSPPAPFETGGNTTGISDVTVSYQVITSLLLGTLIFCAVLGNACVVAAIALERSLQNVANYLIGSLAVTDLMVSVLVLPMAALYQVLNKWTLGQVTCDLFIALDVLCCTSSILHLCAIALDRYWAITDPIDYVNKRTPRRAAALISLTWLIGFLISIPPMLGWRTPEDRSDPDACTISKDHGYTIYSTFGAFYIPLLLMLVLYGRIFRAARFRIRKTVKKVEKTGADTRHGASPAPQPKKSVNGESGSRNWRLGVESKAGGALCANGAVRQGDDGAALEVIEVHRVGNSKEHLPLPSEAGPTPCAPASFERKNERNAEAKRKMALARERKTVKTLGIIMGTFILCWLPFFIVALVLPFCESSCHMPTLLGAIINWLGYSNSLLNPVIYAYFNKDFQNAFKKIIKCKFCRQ

Experiment [11] concerns the target T4, Muscarinic acetylcholine receptor M2 (Homo sapiens, UniProt P08172).
T4 sequence (P08172 whole entry): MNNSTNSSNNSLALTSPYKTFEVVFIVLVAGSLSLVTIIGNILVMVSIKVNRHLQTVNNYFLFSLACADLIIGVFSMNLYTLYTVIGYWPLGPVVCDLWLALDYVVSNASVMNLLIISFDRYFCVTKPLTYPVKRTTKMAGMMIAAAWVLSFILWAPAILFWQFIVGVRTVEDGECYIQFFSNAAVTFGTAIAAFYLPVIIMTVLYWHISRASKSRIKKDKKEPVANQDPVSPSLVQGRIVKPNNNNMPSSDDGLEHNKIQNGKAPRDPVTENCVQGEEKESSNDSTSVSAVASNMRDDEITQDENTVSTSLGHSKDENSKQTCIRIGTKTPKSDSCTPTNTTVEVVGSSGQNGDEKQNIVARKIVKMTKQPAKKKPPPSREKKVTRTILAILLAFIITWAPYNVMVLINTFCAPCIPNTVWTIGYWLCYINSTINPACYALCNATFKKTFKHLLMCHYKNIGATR

Experiment [12] addresses T5, Alpha-2A adrenergic receptor (Homo sapiens, UniProt P08913).
T5 sequence (P08913 whole entry): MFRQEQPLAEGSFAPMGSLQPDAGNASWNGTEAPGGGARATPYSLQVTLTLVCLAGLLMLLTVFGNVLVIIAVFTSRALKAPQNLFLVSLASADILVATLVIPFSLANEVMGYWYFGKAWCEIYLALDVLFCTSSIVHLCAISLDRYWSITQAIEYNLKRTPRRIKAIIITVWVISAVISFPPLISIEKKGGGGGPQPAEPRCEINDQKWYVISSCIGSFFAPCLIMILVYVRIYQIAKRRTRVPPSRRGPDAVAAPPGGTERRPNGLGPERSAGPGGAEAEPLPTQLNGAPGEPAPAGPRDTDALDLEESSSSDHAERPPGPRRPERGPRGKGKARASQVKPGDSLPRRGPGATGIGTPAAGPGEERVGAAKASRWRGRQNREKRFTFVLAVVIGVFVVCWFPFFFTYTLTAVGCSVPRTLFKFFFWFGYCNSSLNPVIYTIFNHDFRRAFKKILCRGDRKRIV

In experiment [13] the target is T2, Prostaglandin G/H synthase 1. It counts as functional. The source holds these as a separate data set.
The target of a further experiment is Prothrombin (Homo sapiens, UniProt P00734). In kind it is functional.

The structures appear in SMILES notation.
Note: assay procedure not described here.

Chain of Histamine H3 receptor (Q9Y5N1 whole entry): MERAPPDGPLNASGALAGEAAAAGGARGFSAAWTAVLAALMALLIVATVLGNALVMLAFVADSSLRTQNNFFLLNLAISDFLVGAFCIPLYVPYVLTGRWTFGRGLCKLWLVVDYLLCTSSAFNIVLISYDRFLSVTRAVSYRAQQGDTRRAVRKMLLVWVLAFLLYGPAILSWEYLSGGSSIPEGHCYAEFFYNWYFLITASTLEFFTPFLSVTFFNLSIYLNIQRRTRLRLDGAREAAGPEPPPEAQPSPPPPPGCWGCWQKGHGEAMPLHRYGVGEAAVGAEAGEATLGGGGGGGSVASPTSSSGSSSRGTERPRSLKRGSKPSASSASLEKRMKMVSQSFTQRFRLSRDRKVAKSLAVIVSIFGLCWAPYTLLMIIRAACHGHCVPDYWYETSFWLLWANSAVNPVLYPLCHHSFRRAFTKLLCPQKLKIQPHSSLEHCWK
Chain of Bile salt export pump (O95342 whole entry): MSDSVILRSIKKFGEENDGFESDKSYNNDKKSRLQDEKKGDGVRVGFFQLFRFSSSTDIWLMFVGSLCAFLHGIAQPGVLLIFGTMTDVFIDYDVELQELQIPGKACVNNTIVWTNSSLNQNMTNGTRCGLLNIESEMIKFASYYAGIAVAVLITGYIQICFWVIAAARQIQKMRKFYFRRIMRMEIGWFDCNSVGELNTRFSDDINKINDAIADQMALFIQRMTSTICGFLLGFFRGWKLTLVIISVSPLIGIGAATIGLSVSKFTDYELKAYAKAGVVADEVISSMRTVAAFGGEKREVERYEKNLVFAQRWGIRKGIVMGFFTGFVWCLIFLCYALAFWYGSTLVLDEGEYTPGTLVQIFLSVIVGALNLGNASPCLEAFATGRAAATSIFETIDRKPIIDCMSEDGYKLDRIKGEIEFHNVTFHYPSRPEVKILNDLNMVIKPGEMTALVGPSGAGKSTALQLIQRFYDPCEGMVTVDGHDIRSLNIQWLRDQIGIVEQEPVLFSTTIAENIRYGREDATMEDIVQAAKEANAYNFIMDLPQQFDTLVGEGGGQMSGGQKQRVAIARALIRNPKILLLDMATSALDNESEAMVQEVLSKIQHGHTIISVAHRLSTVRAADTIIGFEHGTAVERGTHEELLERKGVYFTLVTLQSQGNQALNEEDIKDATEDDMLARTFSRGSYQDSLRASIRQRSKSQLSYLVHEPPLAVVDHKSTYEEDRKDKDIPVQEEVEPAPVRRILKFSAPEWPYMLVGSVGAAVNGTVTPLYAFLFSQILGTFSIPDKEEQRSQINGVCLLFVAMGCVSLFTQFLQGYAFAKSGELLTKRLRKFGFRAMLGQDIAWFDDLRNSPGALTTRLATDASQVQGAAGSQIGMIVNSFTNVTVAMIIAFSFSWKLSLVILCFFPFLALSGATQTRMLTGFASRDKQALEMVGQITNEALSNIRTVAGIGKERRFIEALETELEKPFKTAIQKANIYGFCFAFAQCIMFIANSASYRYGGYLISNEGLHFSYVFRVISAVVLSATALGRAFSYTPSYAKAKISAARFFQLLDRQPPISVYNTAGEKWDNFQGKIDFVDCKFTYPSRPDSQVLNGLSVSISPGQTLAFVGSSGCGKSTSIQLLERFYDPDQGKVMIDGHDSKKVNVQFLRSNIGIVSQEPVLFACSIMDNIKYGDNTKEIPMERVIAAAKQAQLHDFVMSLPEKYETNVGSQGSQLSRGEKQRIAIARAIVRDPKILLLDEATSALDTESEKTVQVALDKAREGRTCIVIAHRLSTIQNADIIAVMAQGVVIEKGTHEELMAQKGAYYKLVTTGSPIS
T2 sequence (P23219 whole entry): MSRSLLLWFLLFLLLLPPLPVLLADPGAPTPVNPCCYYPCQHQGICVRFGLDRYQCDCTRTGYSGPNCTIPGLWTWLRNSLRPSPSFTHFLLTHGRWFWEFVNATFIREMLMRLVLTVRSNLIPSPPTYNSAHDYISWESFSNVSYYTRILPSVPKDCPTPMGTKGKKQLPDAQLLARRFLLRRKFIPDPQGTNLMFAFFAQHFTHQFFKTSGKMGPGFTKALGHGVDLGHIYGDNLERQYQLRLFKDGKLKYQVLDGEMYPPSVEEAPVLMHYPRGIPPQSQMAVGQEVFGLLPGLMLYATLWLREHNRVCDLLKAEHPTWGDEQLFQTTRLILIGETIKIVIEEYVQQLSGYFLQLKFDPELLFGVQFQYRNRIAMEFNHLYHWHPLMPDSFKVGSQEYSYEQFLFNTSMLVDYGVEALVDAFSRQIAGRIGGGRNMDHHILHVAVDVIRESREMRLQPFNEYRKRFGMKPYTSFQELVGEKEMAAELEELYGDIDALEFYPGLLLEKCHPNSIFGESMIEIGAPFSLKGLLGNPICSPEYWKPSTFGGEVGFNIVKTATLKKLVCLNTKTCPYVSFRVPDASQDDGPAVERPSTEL
Chain of Mu-type opioid receptor (P35372 whole entry): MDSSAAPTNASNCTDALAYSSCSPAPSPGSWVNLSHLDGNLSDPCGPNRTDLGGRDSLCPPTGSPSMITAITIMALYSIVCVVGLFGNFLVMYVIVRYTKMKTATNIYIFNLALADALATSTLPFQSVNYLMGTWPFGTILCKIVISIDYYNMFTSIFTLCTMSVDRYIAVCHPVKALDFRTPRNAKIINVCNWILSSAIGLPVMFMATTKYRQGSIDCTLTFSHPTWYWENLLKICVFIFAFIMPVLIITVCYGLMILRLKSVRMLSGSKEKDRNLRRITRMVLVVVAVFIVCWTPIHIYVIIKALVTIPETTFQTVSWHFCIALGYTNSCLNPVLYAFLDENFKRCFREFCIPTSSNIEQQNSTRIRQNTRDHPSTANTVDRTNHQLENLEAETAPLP
Chain of cGMP-inhibited 3',5'-cyclic phosphodiesterase 3A (Q14432 whole entry): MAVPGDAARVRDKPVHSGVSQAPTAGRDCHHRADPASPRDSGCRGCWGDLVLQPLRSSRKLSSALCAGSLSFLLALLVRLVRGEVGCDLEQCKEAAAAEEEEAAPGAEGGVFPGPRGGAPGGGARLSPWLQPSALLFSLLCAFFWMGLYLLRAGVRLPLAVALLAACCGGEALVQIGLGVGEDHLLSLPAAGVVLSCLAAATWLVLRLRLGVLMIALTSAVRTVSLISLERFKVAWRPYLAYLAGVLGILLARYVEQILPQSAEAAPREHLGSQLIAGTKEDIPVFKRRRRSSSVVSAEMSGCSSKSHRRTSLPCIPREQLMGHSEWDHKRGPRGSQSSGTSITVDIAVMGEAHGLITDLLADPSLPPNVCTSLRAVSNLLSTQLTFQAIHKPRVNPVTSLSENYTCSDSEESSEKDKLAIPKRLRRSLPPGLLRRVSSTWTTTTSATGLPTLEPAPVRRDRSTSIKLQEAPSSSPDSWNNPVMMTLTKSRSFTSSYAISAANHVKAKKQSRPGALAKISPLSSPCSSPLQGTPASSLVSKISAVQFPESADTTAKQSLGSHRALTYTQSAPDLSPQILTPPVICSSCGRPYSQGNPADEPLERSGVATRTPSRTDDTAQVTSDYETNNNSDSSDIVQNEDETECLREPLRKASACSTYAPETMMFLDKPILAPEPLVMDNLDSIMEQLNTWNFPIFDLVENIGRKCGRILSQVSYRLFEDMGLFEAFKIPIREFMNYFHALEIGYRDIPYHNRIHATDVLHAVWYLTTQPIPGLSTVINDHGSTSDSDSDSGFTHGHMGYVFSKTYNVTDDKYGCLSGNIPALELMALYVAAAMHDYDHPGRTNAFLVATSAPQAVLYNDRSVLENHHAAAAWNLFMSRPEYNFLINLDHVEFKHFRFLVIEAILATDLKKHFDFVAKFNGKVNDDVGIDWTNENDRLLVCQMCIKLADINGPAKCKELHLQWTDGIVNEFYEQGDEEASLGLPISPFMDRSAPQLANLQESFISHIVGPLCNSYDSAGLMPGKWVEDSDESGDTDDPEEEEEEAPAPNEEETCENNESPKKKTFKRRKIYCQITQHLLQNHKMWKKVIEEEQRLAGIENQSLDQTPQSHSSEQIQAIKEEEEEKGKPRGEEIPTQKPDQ
Chain of 3',5'-cyclic-AMP phosphodiesterase 4A (P27815 whole entry): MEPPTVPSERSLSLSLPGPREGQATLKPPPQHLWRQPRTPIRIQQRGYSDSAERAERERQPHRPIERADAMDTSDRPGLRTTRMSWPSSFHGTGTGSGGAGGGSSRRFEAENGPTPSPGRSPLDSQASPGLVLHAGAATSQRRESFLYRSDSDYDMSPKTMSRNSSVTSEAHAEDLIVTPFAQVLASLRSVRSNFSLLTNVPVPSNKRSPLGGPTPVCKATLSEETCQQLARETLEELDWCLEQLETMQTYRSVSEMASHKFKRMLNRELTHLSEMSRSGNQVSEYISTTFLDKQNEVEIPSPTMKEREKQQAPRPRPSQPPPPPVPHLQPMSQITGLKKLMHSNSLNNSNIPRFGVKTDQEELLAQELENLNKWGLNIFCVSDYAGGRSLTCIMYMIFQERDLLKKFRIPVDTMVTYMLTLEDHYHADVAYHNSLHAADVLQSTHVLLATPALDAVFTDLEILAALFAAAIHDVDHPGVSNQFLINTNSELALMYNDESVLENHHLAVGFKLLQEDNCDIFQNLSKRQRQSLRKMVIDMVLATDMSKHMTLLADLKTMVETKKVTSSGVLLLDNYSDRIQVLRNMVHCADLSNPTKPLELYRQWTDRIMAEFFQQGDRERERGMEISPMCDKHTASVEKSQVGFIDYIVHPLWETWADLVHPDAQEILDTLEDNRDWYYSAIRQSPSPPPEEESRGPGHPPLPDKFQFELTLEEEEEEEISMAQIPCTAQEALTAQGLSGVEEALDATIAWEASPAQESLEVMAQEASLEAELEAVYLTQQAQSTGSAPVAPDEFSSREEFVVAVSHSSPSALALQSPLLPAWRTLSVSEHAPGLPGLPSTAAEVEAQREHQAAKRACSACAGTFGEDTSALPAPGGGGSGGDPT

For the compound `O=C(O)COc1nn(Cc2ccccc2)c2ccccc12` [BENDAZAC], the AC50 is over 3 µM on Thromboxane A2 receptor [1]; over 30 µM on Histamine H3 receptor; over 30 µM on D(3) dopamine receptor; over 30 µM in experiment [2]; over 30 µM at Thromboxane A2 receptor [3]; over 30 µM in [4]. In addition, the concentration at half-maximal activity (AC50) (on Acetylcholinesterase; on D(1A) dopamine receptor; in [5]; in experiment [6]; in [7]; at Mu-type opioid receptor) was over 30 µM in each case. Moreover, the AC50 is over 30 µM in [8]; 260 µM on Bile salt export pump; over 30 µM in [9]; over 30 µM in experiment [10]; over 30 µM in [11]; over 30 µM in experiment [12]. The AC50 (in [13]; on Prothrombin) was over 30 µM throughout.

For the compound `CC(=O)Oc1ccccc1C(=O)Nc1ncc([N+](=O)[O-])s1` [NITAZOXANIDE], the AC50 at Thromboxane A2 receptor [1] was over 10 µM; on Histamine H3 receptor, over 30 µM; at D(3) dopamine receptor, over 30 µM; in experiment [2] it was over 30 µM; on Thromboxane A2 receptor [3], over 30 µM; in experiment [4], over 30 µM. Also, the AC50 is over 10 µM at Acetylcholinesterase; over 30 µM at D(1A) dopamine receptor; over 30 µM in [5]; over 30 µM in [7]; over 30 µM on Mu-type opioid receptor; over 30 µM in experiment [8]. Further, the concentration at half-maximal activity (AC50) on Bile salt export pump was 45 µM; in experiment [9], 9.53 µM; in experiment [10] it was over 30 µM; in [11] it was over 30 µM; in experiment [12], over 30 µM; in experiment [13] it was 0.0114 µM. Further, the AC50 at Prothrombin is over 30 µM.

As for `CCCCCCCCCCC[C@@H](C[C@@H]1OC(=O)[C@H]1CCCCCC)OC(=O)[C@H](CC(C)C)NC=O` [ORLISTAT], the AC50 (on Thromboxane A2 receptor [1]; at Histamine H3 receptor; on D(3) dopamine receptor; in [2]; on Thromboxane A2 receptor [3]; in experiment [4]) was over 30 µM in each case. In addition, the AC50 (on D(1A) dopamine receptor; in experiment [5]; in experiment [6]; in experiment [7]; at Mu-type opioid receptor; in [8]) was over 30 µM each time. Also, the AC50 on Bile salt export pump is over 300 µM; in experiment [9], over 30 µM; in experiment [10], over 30 µM; in experiment [11] it was over 30 µM; in experiment [12], over 30 µM; in experiment [13], over 30 µM. This compound registered an AC50 on Prothrombin of over 30 µM.

As for `CC(C)COc1ccc(CNC(=O)N(Cc2ccc(F)cc2)C2CCN(C)CC2)cc1` [PIMAVANSERIN], the AC50 at Thromboxane A2 receptor [1] is over 3 µM; on Histamine H3 receptor, 28.7 µM; at D(3) dopamine receptor it was 2.66 µM; in experiment [2], over 30 µM; at Thromboxane A2 receptor [3], 14.1 µM; in [4] it was over 30 µM. The AC50 was over 30 µM at Acetylcholinesterase; 5.78 µM on D(1A) dopamine receptor; 12.8 µM in [5]; over 30 µM in experiment [7]; 16.7 µM at Mu-type opioid receptor; 6.92 µM in experiment [8]. The AC50 at Bile salt export pump is 65 µM; in [9] it was over 30 µM; in experiment [10], over 30 µM; in [11] it was 4.6 µM; in experiment [12] it was over 30 µM; in experiment [13] it was over 30 µM. The AC50 at Prothrombin was over 30 µM.

Take `CCCCCCCCNC(C)C(O)c1ccc(SC(C)C)cc1` (configuration not stated) [SULOCTIDIL]: the AC50 on Histamine H3 receptor was 27.4 µM; on D(3) dopamine receptor, 0.671 µM; in experiment [2], 20.9 µM; at Thromboxane A2 receptor [3], over 10 µM; in [4], over 30 µM; at Acetylcholinesterase it was over 30 µM. The AC50 is 11.3 µM at D(1A) dopamine receptor; 2.21 µM in [5]; 0.43 µM in [6]; over 30 µM in [7]; 7.07 µM on Mu-type opioid receptor; 1.39 µM in experiment [8]. Moreover, the AC50 at Bile salt export pump was 64 µM; in experiment [9] it was 15.5 µM; in [10], 0.216 µM; in experiment [11], 3.41 µM; in experiment [12] it was 6.75 µM; in [13], over 30 µM. This compound returned an AC50 at Prothrombin of over 30 µM.

As to `Cn1c(=O)c2[nH]cnc2n(C)c1=O` [THEOPHYLLINE], the AC50 at Thromboxane A2 receptor [1], on Histamine H3 receptor, on D(3) dopamine receptor, on Thromboxane A2 receptor [3], on Acetylcholinesterase and at D(1A) dopamine receptor was over 30 µM throughout. Also, the AC50 in experiment [5] was over 30 µM; in experiment [6] it was over 30 µM; in experiment [7] it was over 30 µM; at Mu-type opioid receptor, over 30 µM; in experiment [8], over 30 µM; at Bile salt export pump it was over 300 µM. Further, the AC50 (in experiment [9]; in [10]; in experiment [11]; in experiment [12]; in experiment [13]; on Prothrombin) was over 30 µM each time.

As for `NCCc1ccc(O)cc1` [TYRAMINE], the AC50 (at Thromboxane A2 receptor [1]; on Histamine H3 receptor; in experiment [2]; at Thromboxane A2 receptor [3]; in experiment [4]; at Acetylcholinesterase) was over 30 µM throughout. For the same compound, the AC50 in [5] was over 30 µM; in experiment [6] it was over 30 µM; in experiment [7], over 30 µM; at Mu-type opioid receptor, over 30 µM; in [8], 22.2 µM; at Bile salt export pump it was over 300 µM. Moreover, the half-maximal activity concentration (AC50) in experiment [9] was over 3 µM; in experiment [10], 7.88 µM; in [11], over 30 µM; in experiment [12], 22 µM; in [13], over 30 µM; on Prothrombin, over 30 µM.
